Assay results as given in US11324774B2, “Compositions of oral alkaline salts and metabolic acid inducers and uses thereof” (Augusta University Research Institute, Inc., priority 2018, dated 2022).
Where two headings read alike, the source gives them in different places.

Tests used:
IL-6 = test system: IL-6
Description: (§1) IL-6 and TNF-α were determined in plasma samples using the microfluidic simple plex cartridge system following manufacturer specifications. Briefly, Simple Plex uses 25 μL of serum for measurement of the […] cytokines. The work flow of the Simple Plex assays is: (a) a test cartridge is primed with samples with each sample split into channels (i.e., TNF-α and IL-6 to react with their respective antibodies immobilized on glass nanoreactors; (b) after sample incubation, circuits in the cartridge are cleaned with wash buffer, and biotinylated detection antibody solutions are individually pumped into their respective channels to bind to protein analyte captured on the GNRs; (c) after incubation, unbound detection antibodies are washed away and a detection solution (i.e., streptavidin DyLight 650) is flowed into all channels to conjugate with the biotinylated detection antibodies; (d) the detection solution is washed away; detection fluorophores (i.e., DyLight 650) are excited with a 631 nm laser; and the fluorescence signals are read with a charge-coupled device (CCD) camera. The signals are used for quantification based on master calibrator curves provided by the manufacturer.

TNF-α = test system: TNF-α
Description: as §1

[1] = test system: T-regulatory cells (FOXP3+ T-regs), TH17 cells; test: Circulating T-regulatory and TH17 cells in rats; assay type: in vivo
[2] = test system: vascular endothelial function; conditions: in vivo, po
[3] = 0.1M in drinking water
Description: Urine collection: For urine collection rats were placed in rat metabolic cages for 24 hours (Nalgene, Rochester, N.Y.). Urine was collected and weighed for volume determination. Up to 10 mL of urine was stored at −80° C. for later analysis. All urinary data are presented as 24 hour urinary excretion.
Electrolytes: Urinary Na, K and Cl measurements were obtained using an electrolyte analyzer (Easylite; Medica Co, Bedford Mass.). Samples were diluted 1:10, 1 part urine to 9 parts Easylyte Urine Diluent as per the manufactures instructions.
Rat protocols: Dahl SS rats: All rats were maintained on low salt chow with ad libitum water (tap water). […] Following four days of low salt (LS) feeding, rats were placed on an 8% HS diet (AIN76A 8%; Dyets) for two weeks. 24 hour urine collections were obtained on day 3 of low salt and day 7 and day 14 of high salt feeding if applicable. Following 14 days of HS feeding, rats were anesthetized with isoflurane (2-5%) and tissue harvested for analysis.

splenic macrophages = conditions: 3 days, 0.1M in drinking water (unpublished data)
[4] = test system: spleen cells (M1/M2 macrophages)
[5] = test system: blood leukocytes (M1, M2 macrophages, TNFα+ neutrophils); conditions: single 2 g dose
Description: Blood was taken at all time points for all control subjects. No data was excluded from the analysis. Flow cytometric analysis of heparinized whole blood was performed as described previously. Briefly, cells were incubated with antibodies for surface markers (15 minutes on ice in dark) before incubation with antibodies against intracellular cytokines and factors (after permeabilization for 15 minutes using fix/Perm cocktail, eBioscience, San Diego USA) including, CD11b, CD68, TNFα (for M1 macrophages), CD11b, CD68, CD206 and IL-10 (for M2 macrophages) (purchased from BD BioSciences) and CD16 and TNFα (for neutrophils, from eBioscience, USA). Cells were then washed and run through a four-color flow cytometer (FACS Calibur, BD Biosciences), and data were collected using CellQuest software. Samples were double-stained with control IgG and cell markers to assess any spillover signal of fluorochromes. Proper compensation was set to ensure the median fluorescence intensities of negative and positive cells were identical and then was used to gate the population. Gating excluded dead cells and debris using forward and side scatter plots.

parasympathetic activity = test system: parasympathetic activity
Description: Changes in heart rate (HR) and RR-interval were monitored over the last 5 min of a 15 min period of quiet rest in a supine position to establish baseline values. Time-domain indices of heart rate variability (HRV) including the root mean square differences of successive normal sinus RR intervals (rMSSD) and the percentage of successive normal sinus RR intervals >50 ms (pNN50) were calculated from a 3-lead ECG that was continuously recorded via a Finapres NOVA (Finapres Medical Systems, The Netherlands). Following treatment an additional 5 min segment of data was collected in the same manner and used to calculate post-treatment values of rMSSD and pNN50.
Parasympathetic activity was determined as described above. Potassium levels were determined using standard clinical laboratory procedures (Labcorp).

[6] = Description: Serum Electrolytes: Blood samples were collected via an intravenous catheter (Nexiva™ Becton Dickinson, Franklin Lakes, N.J.) at baseline and at 60 minute intervals post-treatment to examine changes in serum electrolyte balance (Na, K, and Cl^−).
[7] = healthy rats, 3 days of drinking, 0.1M
[8] = compared to vehicle (0.1M NaCl)
[9] = Spleen, 14 Days HS, 0.1M NaHCO3 in drinking water

O=C([O-])O.[Na+] [NaHCO3, sodium bicarbonate]
IL-6 (IL-6; ingestion for 2 weeks): reduces
IL-6 (IL-6; single dose, 60 minutes): reduces
TNF-α (TNF-α; ingestion for 2 weeks): reduces
TNF-α (TNF-α; single dose, 60 minutes): reduces
anti-inflammatory T-regulatory cells [1, 7]: robust but identical increases
pro-inflammatory TH17 cells [1, 7]: decreases
circulating anti-inflammatory T cells (FOXP3+ T-regs) ([1]; rats, 4 days in drinking water): significantly increased
FMD [2]: improves
FMD/Shear [2]: improves
urinary K excretion [3, 8]: no effect
urinary Na excretion [3, 8]: no effect
urinary Cl excretion ([3]; compared to vehicle, p=0.03): significantly lower
M2 macrophages (splenic macrophages): no effect
splenic macrophages (splenic macrophages): increased
CD3 [4, 9]: 15.3 ± 0.8%
CD4 [4, 9]: 53 ± 1%
CD11b/c [4, 9]: 7.3 ± 0.6%
CD44 [4, 9]: 35 ± 2%
CD69 [4, 9]: 7.2 ± 0.9%
FOXP3 [4, 9]: 6 ± 0.5%
IL-10 [4, 9]: 7.5 ± 0.7%
IL-17 [4, 9]: 2.8 ± 0.6%
M1 [4, 9]: 5.8 ± 0.5%
M2 [4, 9]: 8.3 ± 0.5%
TNFα [4, 9]: 3 ± 0.5%
macrophage polarization in splenic tissue ([4]; high salt fed, p=0.005): polarization from predominately M1 to M2
M1 macrophages in blood ([5]; 1-3 hours, compared to NaCl, p=0.0004): reduced to a significantly greater degree
TNFα positive neutrophils in blood ([5]; 1-3 hours, compared to NaCl, p=0.0146): reduced to a significantly greater degree
percentage of blood leukocytes identified as M2 macrophages ([5]; change from baseline compared to NaCl, p=0.00165): increased
parasympathetic activity (rMSSD) (parasympathetic activity; ingestion for 2 weeks): improves
parasympathetic activity (rMSSD) (parasympathetic activity; single dose, 60 minutes): improves
serum potassium ([6]; after single 2 g dose): decreased
Na ([6]; serum, Post-treatment, single 2 g dose in 250 ml water): 140.8 ± 0.5 mmol/L
